Measured values from publication PMC7377239, “Cardiovascular Effects of Polychlorinated Biphenyls and Their Major Metabolites” (Environmental Health Perspectives, 2020).
Where a name gives a salt, the structure may show the parent alone. Read-outs that look alike come from different tables or passages of the source.

System: iCell cardiomyocytes (human iPSC-derived cardiomyocytes)
Experiment: Intracellular Ca2+ flux / beating parameters in iCell cardiomyocytes (FLIPR tetra), 90 min or 24 h
Assay type: cell-based
Settings: Homo sapiens, Cardiomyocyte, 0.00 µM = 100.00; for activity at 0.1 µM: 0.10 µM
How it was run: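 Gelatin-plated iCell cardiomyocytes (5,000/well) were dye-loaded for 2 h at 37 °C, then exposed for 90 min or 24 h to PCBs/metabolites (5× plates at 0.05–500 µM; 0.5% DMSO final) in triplicate. Ca2+ flux was read for 100 s at 8 Hz and 37 °C. Peak height, frequency, spacing CV and decay/rise ratio were vehicle-normalized and fitted with a four-parameter logistic model, with POD set at 1 SD of vehicle.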

[1] = 1.5 h, read-out: cm.amp.avg.90min
[2] = 1.5 h, read-out: cm.amp.cv.90min
[3] = 1.5 h, read-out: cm.decay.rise.90min
[4] = 1.5 h, read-out: cm.spacing.cv.90min
[5] = 24 h, read-out: cm.amp.avg.24hrs
[6] = 24 h, read-out: cm.amp.cv.24hrs
[7] = 24 h, read-out: cm.decay.rise.24hrs
[8] = 24 h, read-out: cm.spacing.cv.24hrs

Oc1cccc(-c2ccc(Cl)cc2)c1 [3'-OH PCB3]
activity at 0.01 µM [1]: 95.3%
activity at 0.01 µM [2]: 94.5%
activity at 0.01 µM (1.5 h, read-out: cm.bpm.90min): 97.8%
activity at 0.01 µM [3]: 96.7%
activity at 0.01 µM [4]: 101%
activity at 0.1 µM [1]: 100%
activity at 0.1 µM [2]: 80.2%
activity at 0.1 µM (1.5 h, read-out: cm.bpm.90min): 102%
activity at 0.1 µM [3]: 97.5%
activity at 0.1 µM [4]: 106%
activity at 1 µM [1]: 97.7%
activity at 1 µM [2]: 92.4%
activity at 1 µM (1.5 h, read-out: cm.bpm.90min): 105%
activity at 1 µM [3]: 102%
activity at 1 µM [4]: 98.3%
activity at 10 µM [1]: 90.4%
activity at 10 µM [2]: 103%
activity at 10 µM (1.5 h, read-out: cm.bpm.90min): 130%
activity at 10 µM [3]: 97.2%
activity at 10 µM [4]: 123%
activity at 100 µM [1]: 0%
activity at 100 µM [2]: 0%
activity at 100 µM (1.5 h, read-out: cm.bpm.90min): 0%
activity at 100 µM [3]: 0%
activity at 100 µM [4]: 0%
activity at 0.01 µM [5]: 82.3%
activity at 0.01 µM [6]: 114%
activity at 0.01 µM (24 h, read-out: cm.bpm.24hrs): 104%
activity at 0.01 µM [7]: 102%
activity at 0.01 µM [8]: 105%
activity at 0.1 µM [5]: 110%
activity at 0.1 µM [6]: 78.7%
activity at 0.1 µM (24 h, read-out: cm.bpm.24hrs): 97.4%
activity at 0.1 µM [7]: 94.2%
activity at 0.1 µM [8]: 100%
activity at 1 µM [5]: 88.2%
activity at 1 µM [6]: 107%
activity at 1 µM (24 h, read-out: cm.bpm.24hrs): 99.3%
activity at 1 µM [7]: 102%
activity at 1 µM [8]: 97%
activity at 10 µM [5]: 22%
activity at 10 µM [6]: 101%
activity at 10 µM (24 h, read-out: cm.bpm.24hrs): 56.3%
activity at 10 µM [7]: 44.1%
activity at 10 µM [8]: 54.5%
activity at 100 µM [5]: 0%
activity at 100 µM [6]: 0%
activity at 100 µM (24 h, read-out: cm.bpm.24hrs): 0%
activity at 100 µM [7]: 0%
activity at 100 µM [8]: 0%

O=S(=O)(O)Oc1cccc(-c2ccc(Cl)cc2)c1 [3'-yl PCB 3 sulfate]
activity at 0.01 µM [1]: 106%
activity at 0.01 µM [2]: 121%
activity at 0.01 µM (1.5 h, read-out: cm.bpm.90min): 96.5%
activity at 0.01 µM [3]: 95.8%
activity at 0.01 µM [4]: 108%
activity at 0.1 µM [1]: 106%
activity at 0.1 µM [2]: 103%
activity at 0.1 µM (1.5 h, read-out: cm.bpm.90min): 100%
activity at 0.1 µM [3]: 99.3%
activity at 0.1 µM [4]: 110%
activity at 1 µM [1]: 111%
activity at 1 µM [2]: 84.7%
activity at 1 µM (1.5 h, read-out: cm.bpm.90min): 99.1%
activity at 1 µM [3]: 96.2%
activity at 1 µM [4]: 94.2%
activity at 10 µM [1]: 109%
activity at 10 µM [2]: 88.3%
activity at 10 µM (1.5 h, read-out: cm.bpm.90min): 100%
activity at 10 µM [3]: 95.3%
activity at 10 µM [4]: 94.3%
activity at 100 µM [1]: 109%
activity at 100 µM [2]: 86.7%
activity at 100 µM (1.5 h, read-out: cm.bpm.90min): 91.5%
activity at 100 µM [3]: 99.4%
activity at 100 µM [4]: 107%
activity at 0.01 µM [5]: 79%
activity at 0.01 µM [6]: 31.6%
activity at 0.01 µM (24 h, read-out: cm.bpm.24hrs): 52.5%
activity at 0.01 µM [7]: 45.2%
activity at 0.01 µM [8]: 48.7%
activity at 0.1 µM [5]: 60.9%
activity at 0.1 µM [6]: 151%
activity at 0.1 µM (24 h, read-out: cm.bpm.24hrs): 102%
activity at 0.1 µM [7]: 90.7%
activity at 0.1 µM [8]: 98.6%
activity at 1 µM [5]: 86.6%
activity at 1 µM [6]: 96.4%
activity at 1 µM (24 h, read-out: cm.bpm.24hrs): 89.7%
activity at 1 µM [7]: 117%
activity at 1 µM [8]: 96.2%
activity at 10 µM [5]: 75%
activity at 10 µM [6]: 122%
activity at 10 µM (24 h, read-out: cm.bpm.24hrs): 101%
activity at 10 µM [7]: 98.6%
activity at 10 µM [8]: 93.8%
activity at 100 µM [5]: 85%
activity at 100 µM [6]: 91.8%
activity at 100 µM (24 h, read-out: cm.bpm.24hrs): 92.6%
activity at 100 µM [7]: 99%
activity at 100 µM [8]: 87.7%
